Test results: PubChem BioAssay (NCI)
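Cultured in 96-well plates, cells were exposed to test compound for 48 hours across five concentrations. GI50: concentration for 50% inhibition of growth. TGI marks complete inhibition of growth.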

Columns and labels:
Experiment in all cases: NCI-60 cell line screen, 48 h
[1] = system: M14 melanoma
[2] = system: RPMI-8226 leukemia
[3] = system: A549 NSCLC
[4] = system: CAKI-1 renal
[5] = system: MALME-3M melanoma
[6] = system: UACC-257 melanoma
[7] = system: NCI-H226 lung
[8] = system: SK-MEL-5 melanoma
[9] = system: SNB-19 CNS
[10] = system: KM12 colon

Row | Structure (SMILES) | TGI [1] [µM] | TGI [2] [µM] | TGI [3] [µM] | TGI [4] [µM] | TGI [5] [µM] | TGI [6] [µM] | TGI [7] [µM] | TGI [8] [µM] | TGI [9] [µM] | TGI [10] [µM] | GI50 [1] [µM] | GI50 [2] [µM] | GI50 [3] [µM] | GI50 [10] [µM] | GI50 [4] [µM] | GI50 [6] [µM] | GI50 [7] [µM] | GI50 [8] [µM]
1 | CC(=O)N1C(OCc2ccccc2)CCN1c1ccccc1 (centres undefined) | > 10 | > 10 | > 10 | > 10 | > 10 | > 10 | > 10 | > 10 | > 10 |  |  |  |  |  |  |  |  | 
2 | Cc1oc2c(C)c3oc(=O)cc(C)c3cc2c1CN | > 100 | > 100 | > 100 |  | 86 | > 100 | 91.2 |  | > 100 | > 100 |  |  |  |  |  |  |  | 
3 | COc1ccc(/C=C/C(c2cc(OC)c(OC)c(OC)c2)n2cncn2)cc1O (centres undefined) | 5.12 | 42.2 | > 100 | > 100 |  | > 100 | > 100 | 35.4 |  | > 100 | 0.0287 | 0.037 | 4.56 | 0.0405 | 2.83 | > 100 | 5.93 | 0.0458
4 | CCOC(=O)CN(Cc1ccccc1)Cc1c(C(=O)c2ccccc2)c2ccccc2n1C(=O)c1ccccc1 | > 100 | > 100 | > 100 | > 100 | > 100 |  | > 100 | > 100 | > 100 | > 100 |  |  |  |  |  |  |  | 
5 | O=C(CCC(=O)OCC1OC(O)(CC2OC(CO)C(O)C(O)C2O)C(O)C1O)OCc1ccccc1 (centres undefined) | > 100 |  | > 100 | > 100 | > 100 | > 100 | > 100 | > 100 | > 100 | > 100 |  |  |  |  |  |  |  | 
6 | COC(=O)C(N)CCCC(N)C(=O)NC(C)C(=O)NC(CCC(=O)NCCCNc1ccc([N+](=O)[O-])c2[nH]c3ccccc3c(=O)c12)C(N)=O (centres undefined) | 17.9 | 14 | 12.3 | 19.8 |  | 23.2 | 27.9 | 23.9 | 15 | 19.1 |  |  |  |  |  |  |  | 
7 | Cn1c(=O)c2[nH]c(-n3nc(-c4ccccc4)cc3N)nc2n(C)c1=O | 50 | > 100 | > 100 | 15 | 47 |  | 33.7 | 61.9 |  | > 100 |  |  |  |  |  |  |  | 
8 | Clc1cccc(N=C/C=C/Nc2cccc(Cl)c2)c1 |  | > 100 | 83.9 | 65.1 |  | 32.2 |  | 44 |  | 27.1 |  |  |  |  |  |  |  | 
9 | c1csc(-c2nnc(C34CC5CC(CC(C5)C3)C4)o2)c1 | > 100 | 77.5 | > 100 | > 100 | 39.4 |  | > 100 | 30.8 | > 100 | > 100 |  |  |  |  |  |  |  | 
10 | c1ccc(-c2nc3ccccc3n3nnnc23)cc1 | > 100 | > 100 | > 100 |  | > 100 | > 100 | > 100 | > 100 | > 100 | > 100 |  |  |  |  |  |  |  | 
11 | CCCN(CCC)c1c([N+](=O)[O-])cc(C(=O)N(C)C)cc1[N+](=O)[O-] | > 100 | > 100 | > 100 | > 100 | > 100 | > 100 |  | 28.9 |  | > 100 |  |  |  |  |  |  |  | 
12 | CN(C)/C=N/S(=O)(=O)c1nn2c(C=O)c(-c3cc4ccccc4oc3=O)nc2s1 |  | 30.4 | > 63.5 | 4.95 | 6.07 | 29.3 | > 56.5 | 12 | > 100 | > 49 |  |  |  |  |  |  |  | 
13 | C/C(=C/c1c(C)[nH]c(=O)[nH]c1=O)C(=O)O |  | > 1380 | > 1380 | > 1380 | > 1380 | > 1380 | > 1370 | > 1370 | > 1370 | > 1380 |  |  |  |  |  |  |  | 
14 | C=CCc1cccc2cc(C(=O)Nc3nc(C45CC6CC(CC(C6)C4)C5)cs3)c(=O)oc12 |  | > 100 | > 100 | 41.4 | > 100 | > 100 | > 100 | > 100 | 64.2 | > 100 |  |  |  |  |  |  |  | 
15 | COc1cc(C2C3=C(N=C4SC(C(C)=O)=C(C)N42)c2ccccc2CC3)cc(OC)c1OC (centres undefined) | > 100 | 93.4 | > 100 |  |  | > 100 | > 100 | > 100 | > 100 | > 100 |  |  |  |  |  |  |  | 
16 | Cc1ccnc2sc3ccccc3c(=O)c12 | > 100 | > 100 |  | 61.5 | > 100 | > 100 | > 100 | 73.4 | > 100 | > 100 |  |  |  |  |  |  |  | 
17 | O=C1C=C(NCCc2cc(Br)c(O)c(Br)c2)C(=O)c2[nH]cnc21 | 57.7 |  | > 100 | > 100 | 30 | 44.4 | > 100 | 29 | > 100 | > 100 |  |  |  |  |  |  |  | 
18 | CC1(CO)C(=O)OC12CCCCC2 (centres undefined) | > 100 | > 100 | > 100 | > 100 | > 100 | > 100 | > 100 |  | > 100 | > 100 |  |  |  |  |  |  |  | 
19 | CCCCNCC(O)c1cc(-c2ccc(C(F)(F)F)cc2)nc(-c2ccc(C(F)(F)F)cc2)c1 (centres undefined) |  |  | 3.36 | 3.41 |  | 3.57 |  | 3.26 |  | 3.6 |  |  | 1.64 | 1.81 | 1.71 | 1.83 |  | 1.77
20 | CCc1cc2c(oc3c4ccccc4ccc23)c(=O)[nH]1 | > 10 |  | > 10 |  |  | > 10 | > 10 |  | > 10 | > 10 |  |  |  |  |  |  |  | 
21 | CC(C)(CN1CCCCC1)C(=O)/C=C/c1c(Cl)cccc1Cl | 2.32 |  | 5.51 | 2.78 | 2.16 | 6.36 | 9.88 | 2.92 | 8.39 | 2.36 |  |  |  |  |  |  |  | 
22 | N#CI1OC(C(F)(F)F)(C(F)(F)F)c2ccccc21 | 36.2 | > 100 | > 100 | 28 |  | 51.8 | 49 | 33.8 |  | 35.5 |  |  |  |  |  |  |  | 
23 | O=[N+]([O-])c1ccc(Cl)cc1N/N=C/c1cccs1 | > 100 | > 100 | > 100 | > 100 |  | > 100 | > 100 | > 100 | > 100 | > 100 |  |  |  |  |  |  |  | 
